Measured values as given in patent US5773459A, “Urea- and thiourea-type compounds” (Sugen, Inc., priority 1995, dated 1998).

Target: T1, FLK-1 receptor (Mus musculus, UniProt P35918)
T1 construct: expressed in transfected cells; host or cells: NIH3T3 C7#3 (FLK-1 infected cells)
Assay: ELISA Assay to Measure Kinase Activity of FLK-1 Receptor in FLK-1/NIH Cells
Format: cell-based, murine
Conditions: cellular, VEGF stimulated; read-out: ELISA DATA: FLK-1 - (Cell.)
Source text: For purposes of this application, although the nomenclature of the human and murine counterparts of the generic "flk-l" receptor differ, they are, in many respects, interchangeable. The murine receptor, FLK1, and its human counterpart, KDR, share a sequence homology of 93.4% within the intracellular domain. Likewise, murine FLK-1 binds human VEGF with the same affinity as mouse VEGF, and accordingly, is activated by the ligand derived from either species. Millauer et al., 1993, Cell 72:835-846; Quinn et al., 1993, Proc. Natl. Acad. Sci. USA 90:7533-7537. FLK-1 also associates with and subsequently tyrosine phosphorylates human RTK substrates (e.g., PLC-γ or p85) when coexpressed in 293 cells (human embryonal kidney fibroblasts).
Models which rely upon the FLK-1 receptor therefore are directly applicable to understanding the KDR receptor. For example, use of the murine FLK-1 receptor in methods to identify compounds which regulate the signal transduction pathway are directly applicable to the identification of compounds which may be used to regulate the human signal transduction pathway, and more specifically, activity related to the KDR receptor. Chemical compounds identified as inhibitors of KDR/FLK-1 in vitro, will be confirmed in suitable in vivo models.
ELISA Assay to Measure Kinase Activity of FLK-1 Receptor in FLK-1/NIH Cells […]

T1 sequence (P35918 20-1345): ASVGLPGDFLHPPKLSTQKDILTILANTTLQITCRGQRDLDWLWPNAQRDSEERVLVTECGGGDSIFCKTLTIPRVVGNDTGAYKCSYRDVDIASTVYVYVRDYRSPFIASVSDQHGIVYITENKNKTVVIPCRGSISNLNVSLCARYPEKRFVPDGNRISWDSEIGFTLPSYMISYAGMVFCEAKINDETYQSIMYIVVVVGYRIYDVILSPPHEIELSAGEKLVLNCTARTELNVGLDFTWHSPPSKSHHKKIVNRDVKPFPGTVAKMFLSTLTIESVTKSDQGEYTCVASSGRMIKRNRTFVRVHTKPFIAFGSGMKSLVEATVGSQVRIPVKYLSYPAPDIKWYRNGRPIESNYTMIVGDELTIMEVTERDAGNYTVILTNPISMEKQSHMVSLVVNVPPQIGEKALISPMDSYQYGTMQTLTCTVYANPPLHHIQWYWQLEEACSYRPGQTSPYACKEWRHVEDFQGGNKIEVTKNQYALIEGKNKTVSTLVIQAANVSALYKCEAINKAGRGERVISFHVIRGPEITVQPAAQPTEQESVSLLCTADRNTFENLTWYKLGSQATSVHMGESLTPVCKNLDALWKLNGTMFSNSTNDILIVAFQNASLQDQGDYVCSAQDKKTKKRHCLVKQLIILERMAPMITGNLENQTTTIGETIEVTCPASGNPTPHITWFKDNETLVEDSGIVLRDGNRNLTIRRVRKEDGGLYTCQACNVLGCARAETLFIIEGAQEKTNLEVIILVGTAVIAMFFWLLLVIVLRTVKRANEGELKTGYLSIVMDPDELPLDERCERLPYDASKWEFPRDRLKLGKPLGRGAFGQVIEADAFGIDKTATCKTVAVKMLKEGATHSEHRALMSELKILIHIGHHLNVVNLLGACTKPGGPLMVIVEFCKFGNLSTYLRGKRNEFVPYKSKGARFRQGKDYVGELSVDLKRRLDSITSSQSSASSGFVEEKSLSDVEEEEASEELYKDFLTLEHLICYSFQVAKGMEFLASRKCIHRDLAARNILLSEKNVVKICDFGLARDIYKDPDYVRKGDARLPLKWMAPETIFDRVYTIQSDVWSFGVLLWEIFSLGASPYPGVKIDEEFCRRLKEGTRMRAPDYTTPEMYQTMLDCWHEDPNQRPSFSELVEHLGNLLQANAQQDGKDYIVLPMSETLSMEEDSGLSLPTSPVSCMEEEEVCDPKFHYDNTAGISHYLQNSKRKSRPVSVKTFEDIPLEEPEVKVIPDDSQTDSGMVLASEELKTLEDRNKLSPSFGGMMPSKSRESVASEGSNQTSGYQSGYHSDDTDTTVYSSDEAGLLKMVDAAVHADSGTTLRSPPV

SMILES | IC50
CC(C)S(=O)(=O)c1csc(NC(=O)Nc2ccc(C(C)(C)C)cc2)c1Cl [Example Z1, N-[3-Chloro-4-(isopropylsulfonyl)thien-2-yl]-N'-(4-t-butylphenyl)urea] | 1000 nM
CC(C)S(=O)(=O)c1csc(NC(=O)Nc2cc(C(F)(F)F)cc(C(F)(F)F)c2)c1Cl [Example Z2, N-[3-Chloro-4-(isopropylsulfonyl)thien-2-yl]-N'-(3,5-di-trifluoromethylphenyl)urea] | > 100000 nM
